Patent US5753636A, “Injection solution for intramuscular and subcutaneous administration to animals” (priority 1993, dated 1998)
Where two headings read alike, the source gives them in different places.

What was measured:
[1] = test system: injection site; settings: cited from earlier work
[2] = test system: injection site; test: Local tolerability / irritation at the injection site, general statements; settings: applicant's statement
[3] = test system: injection site; settings: in vivo
[4] = statement on known products, solvents or bases

CC(O)CO (centres unmarked) [1,2-propanediol]
local tolerability / irritation [1, 4]: highly irritant and have haemolytic effects

N=C(N)NCCC[C@H](N)C(=O)O [L-arginine]
local tolerability / irritation [2]: excellent local tolerability

NCCCC[C@H](N)C(=O)O [L-lysine]
local tolerability / irritation [2]: excellent local tolerability

NCCC[C@H](N)C(=O)O [L-ornithine]
local tolerability / irritation [2]: excellent local tolerability

[O]=[Mg] [MgO, Magnesium oxide]
local tolerability / irritation [3]: irritant for tissue

OCCNCCO [diethanolamine]
local tolerability / irritation ([1]; in vivo): very irritant

NCCO [monoethanolamine]
local tolerability / irritation [1, 4]: very irritant

polyethylene glycol
local tolerability / irritation ([1]; in vivo): highly irritant and have haemolytic effects
